Data from patent US10118922B2 (Janssen Pharmaceutica NV, priority 2013, dated 2018).

How the values were obtained:
[1] = biological target: T1, long form of human GPR120 (Homo sapiens, UniProt Q5NUL3); assay: Human GPR120 DiscoveRx PathHunter beta-arrestin assay, Procedure β-arrestin A; assay type: cell-based; settings: PathHunter CHO-K1 GPR120 β-Arrestin cells, 3000 cells per well; read-out: hGPR120 β-arrestin A EC50
T1 construct: host or cells: PathHunter CHO-K1 GPR120 β-Arrestin Cell Line
T1 sequence (Q5NUL3 1-377 isoform Q5NUL3-1): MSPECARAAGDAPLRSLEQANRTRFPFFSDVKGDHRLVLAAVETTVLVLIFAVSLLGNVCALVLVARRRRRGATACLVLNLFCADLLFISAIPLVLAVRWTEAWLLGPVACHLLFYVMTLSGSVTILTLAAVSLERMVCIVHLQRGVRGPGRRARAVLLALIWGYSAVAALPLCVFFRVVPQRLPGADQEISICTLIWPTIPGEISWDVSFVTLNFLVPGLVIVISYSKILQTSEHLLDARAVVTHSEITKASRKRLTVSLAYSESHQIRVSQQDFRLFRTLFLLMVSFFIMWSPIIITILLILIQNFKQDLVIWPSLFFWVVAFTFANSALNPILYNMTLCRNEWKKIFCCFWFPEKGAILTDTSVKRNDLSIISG
Description: The binding of an agonist (medium/long chain fatty acids or small molecule agonists) to the G-protein-coupled receptor GPR120 activates phospholipase C, leading to release of intracellular Ca^+2 through the generation of inositol 1,4,5-trisphosphate (InsP3 or IP3). GPR120 activation can also trigger intracellular signaling via recruitment of Beta-Arrestin. In the present method, agonist-induced activation of the human GPR120 receptor is monitored through the use of PathHunter CHO-K1 GPR120 Beta-Arrestin Cell Line engineered by DiscoveRx, as detailed below. The cell lines are designed to co-express both the ProLink/Enzyme Donor (PK)-tagged GPCR and the Enzyme […] (EA)-tagged Beta-Arrestin fusion proteins. Upon GPR120 receptor stimulation/activation, the EA-tagged Beta-Arrestin portion is translocated to the tagged receptor, where the two enzyme fragments are brought within close proximity. Under these conditions, these fragments can interact and form an active Beta-gal enzyme complex through Enzyme Fragment Complementation (EFC). […] This in vitro assay therefore serves to assess compound agonist activity of the GPR120.
In Procedure β-arrestin A, the cell used were PathHunter CHO-K1 GPR120 β-Arrestin Cell Line, expressing the long form of human GPR120 (Genbank accession number NM_181745), with 3000 cells per well.
The selected CHO-K1 GPR120 β-Arrestin cells were cultured in Ham's F12 media supplemented with 10% fetal bovine serum (FBS), 1% Glutamine, 1×p/s, 800 μg/mL G418 and 300 μg/mL Hygromycin B (for selection). Cell stocks were maintained and grown in a sub-confluent state using standard cell culture procedures. The day before the experiment, the cells were harvested with non-enzymatic cell dissociation buffer and re-suspended in complete growth media at the desired concentration. […] The seeded plates were incubated overnight at 37° C.
On the day of the experiment, the Assay Buffer containing (a) HBSS with Ca^++ and Mg^++, (b) 20 mM HEPES, and (c) 0.1% BSA stabilizer (pH 7.4) was prepared. The growth medium was gently removed from the cell plates and 20 μL of Assay Buffer added to each well. The plate was then incubated at 37° C. for 60 min. […] Five μL of compound dilution was then added to each well and the plate incubated at 37° C. for 90 min. The detection reagents were prepared according to the manufacture's instruction. Twelve μL of the detection reagents were added to each well and the plate incubated at room temperature for 60 min.
The % activity relative to the positive control was calculated using the following equation:
The Fitting Equation was: Y=Bottom+(Top-Bottom)/(1+10^((Log EC50−X)*HillSlope)), where X is the log of the concentration and Y is the response.

Human GPR120 short form = biological target: T2, Human GPR120 short form (Homo sapiens, UniProt Q5NUL3); assay: Human GPR120 calcium flux assay, Procedure Calcium A; assay type: cell-based; settings: HEK-293 cells, FLIPR, 2500 cells/well; read-out: GPR120 Ca2+ Assay A EC50
T2 construct: expressed in transfected cells
T2 sequence (Q5NUL3 1-361): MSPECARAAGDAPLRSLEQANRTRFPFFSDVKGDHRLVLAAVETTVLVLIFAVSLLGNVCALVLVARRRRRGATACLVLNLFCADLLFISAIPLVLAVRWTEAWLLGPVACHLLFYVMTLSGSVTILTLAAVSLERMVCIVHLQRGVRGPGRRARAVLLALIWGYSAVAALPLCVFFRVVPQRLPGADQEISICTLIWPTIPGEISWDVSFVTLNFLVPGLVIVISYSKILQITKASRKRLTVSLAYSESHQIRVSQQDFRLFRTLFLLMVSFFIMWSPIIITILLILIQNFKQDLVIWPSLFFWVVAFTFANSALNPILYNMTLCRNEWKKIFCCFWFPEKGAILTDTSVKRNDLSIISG
Protocol: These cells are first loaded with the Ca^+2 sensitive dye, Fluo-4 NR. Upon stimulation, intracellular released Ca^+2 can bind to the dye and alter its fluorescence intensity. This increase in fluorescence signal, and thus the flux in intracellular [Ca^2+], is detected and quantitated by fluorescence imaging using a FLIPR reader. The effect of the agonist is measured as a function of concentration and used to calculate an EC50 based upon a response curve.
In this procedure 2500 cells/well were employed.
A Human GPR120 clone (Genbank accession number NM_001195755.1) was placed into the pcDNA3.1 mammalian expression vector carrying the neomycin resistance gene. A stable mammalian cell was generated by placing the above clone into a HEK293 background. […] Cells were split 2 times a week to keep the cells in the log-phase growth.
In preparation for the assay, HEK cells stably transfected with Human GPR120 (2.5K cells per well in 25 uL growth medium) were seeded into 384-well plates and then incubated overnight (37° C., 5% CO2). The next day, the media was changed to 20 μL assay buffer and the cell starved for 1 h at 37° C. The dye loading solution (2× dye) was prepared using 10 mL assay buffer, 100 μL of 250 mM probenecid, 1 bottle of Component A, and 20 μl of dye in DMSO. Twenty μL of the 2× dye loading buffer was then added to each well. The plates were incubated at 37° C. for 30 min, then at room temperature for an additional 15 minutes, before performing the assay on FLIPR.
The assay was performed on a FLIPR plate reader using the following parameters. Baseline was read for 10 seconds at 1 sec intervals. The program was set to transfer 10 μL of ligand from compound plate to cell plate after baseline reading. Aspiration was executed at: 10 μL/sec speed, 4.6 μL height; Dispensing was executed at: 30 μL/sec speed, 45 μL height. After compound addition, each well was read for 300 sec, with measurements collected at 1 sec intervals.
The kinetic data from the FLIPR was based upon a 5 minute window for data collection. The fluorescence of each sample well was used for individual calculations of a normalized RFU value, which was defined as maximum response minus the minimum response. […] The Fitting Equation was: Y=Bottom+(Top-Bottom)/(1+10^((Log EC50−X)*HillSlope)), where X is the log of the concentration and Y is the response.

C57bl/6J Mice = assay: GPR120 C57bl6 mouse IPGTT; assay type: in vivo; settings: dosed 30 min prior to glucose IP 1.5 g/kg
Protocol: (§1) Male, C57bl/6J Mice were ordered in at 8 weeks of age from Jackson Labs. Individual mice weighed anywhere in the range of 25-30 grams on study day. The mice were fasted, with removal of food occurring at 7 am on the morning of the study. Animals were moved into the room at 10:00 am, to give them time to acclimate. Glucose (insulin syringes) was drawn up either the night before or the morning of the study. Glucose was dosed (IP) at 1.5 g/kg at 7.5 ml/kg (20% glucose straight TEKNOVA, 250 ml sterile bottle w/ catalogue number G0525). Test compounds were kept spinning and were only drawn into the syringes prior to study commencement. Animals were bled via tail snip to determine basal glucose levels prior to dosing of treatments. An Ascensia BREEZE Blood Glucose Monitoring System by Bayer (using unique 10-test disks) was used for determining glucose levels. The bleeds started at approximately 12:45 pm and dosing started, at 1-minute intervals, immediately after. All groups were dosed 30 minutes prior to glucose administration at a dose volume of 10 ml/kg (the dose volume was calculated separately for each individual animal). Thirty minutes after the first dose animals were bled again for a second baseline, or T=0, and immediately dosed with glucose via an i.p. injection. The exact dose volume for glucose was also calculated separately for each individual animal. Glucose measurements were taken at −30 min prior to compound dose, at t=0 (immediately prior to glucose dose), and at 15, 30, 45, 60, 90 min post glucose dose.
(§2) Glucose values were entered into an Excel sheet and graphed in GraphPad Prism. The following were calculated from Prism: Change from −30 to 0 BSLN Glucose, Raw Glucose AUC −30 to 90 min, Delta Glucose AUC −30 to 90 min, Raw Glucose AUC 0 to 90 min, Delta Glucose AUC 0 to 90 min.

C57b16 mouse = C57b16 mouse OGTT; assay type: in vivo; settings: dosed 30 min prior to glucose PO 3 g/kg
Protocol: as §1, §2
The assay design is the same as that described above for the C57b16 mouse IPGTT. The difference is that glucose was dosed PO at 3 g/kg, 7.5 ml/kg of 40% glucose.

Row | EC50 [1] | EC50 (Human GPR120 short form) | SMILES | C57 IPGTT 3 mg/kg (C57bl/6J Mice) | C57 OGTT 3 mg/kg (C57b16 mouse) | C57 IPGTT 10 mg/kg (C57bl/6J Mice)
1 | 0.209 µM | 0.101 µM | CCc1ccc(-c2cc(F)sc2COc2c(F)cc(CCC(=O)O)cc2F)cc1 [Cpd 7] | – | – | –
2 | – | – | COc1ccc(-c2csc(C(F)(F)F)c2COc2c(F)cc(CCC(=O)O)cc2F)cn1 [Cpd 42, 3-(3,5-difluoro-4-((4-(6-methoxypyridin-3-yl)-2-(trifluoromethyl)thiophen-3-yl)methoxy)phenyl)propanoic acid] | −14 | −44 | –
3 | – | – | OCCCc1cc(F)c(OCc2c(-c3ccc(Cl)cc3)csc2C(F)(F)F)c(F)c1 [Cpd 46, 3-(4-[[4-(4-chlorophenyl)-2-(trifluoromethyl)thiophen-3-yl]methoxy]-3,5-difluorophenyl)propan-1-ol] | −26 | −49 | −75
4 | – | – | CCc1ccc(-c2snc(Cl)c2COc2ccc(CCC(=O)O)c(C)c2C)cc1 [Cpd 85, 3-(4-[[3-chloro-5-(4-ethylphenyl)-1,2-thiazol-4-yl]methoxy]-2,3-dimethylphenyl)propanoic acid] | −29 | −49 | −48
5 | – | – | OCCCc1cc(F)c(OCc2c(-c3ccc(Cl)cc3)nsc2C(F)(F)F)c(F)c1 [Cpd 100, 3-(4-[[3-(4-chlorophenyl)-5-(trifluoromethyl)-1,2-thiazol-4-yl]methoxy]-3,5-difluorophenyl)propan-1-ol] | – | −39 | −42
6 | – | – | Cc1c(CCC(=O)O)ccc(OCc2c(-c3ccc(Cl)cc3)nsc2C(F)(F)F)c1C [Cpd 142, 3-(4-((3-(4-chlorophenyl)-5-(trifluoromethyl)isothiazol-4-yl)methoxy)-2,3-dimethylphenyl)propanoic acid] | −34 | −49 | −61
7 | 0.116 µM | 0.2 µM | O=C(O)CCc1cc(F)c(OCc2c(-c3ccc(C4CC4)cc3)nsc2C(F)(F)F)c(F)c1 [Cpd 160, 3-(4-{[3-(4-Cyclopropylphenyl)-5-(trifluoromethyl)isothiazol-4-yl]methoxy}-3,5-difluorophenyl)propanoic acid] | – | – | –
8 | 0.21 µM | 0.69 µM | CCc1ccc(-c2nsc(C(F)(F)F)c2COc2c(F)cc([C@@H]3C[C@H]3CO)cc2F)cc1 [Cpd 219, [(1R,2R)-2-(4-{[3-(4-Ethylphenyl)-5-(trifluoromethyl)isothiazol-4-yl]methoxy}-3,5-difluorophenyl)cyclopropyl]methanol] | – | – | –
